Assay results from US9326987B2 (priority 2010, dated 2016).
Counter-ions that a name gives are not always drawn. Like-named read-outs stand apart in the source and are kept apart here.

Tests used:
[1] = test system: A/Hong Kong/8/68 (H3N2); assay: Influenza virus cytoprotection assay in A549 cells (MTS); assay type: cell-based; details: for inhibition at 10 µM: 10 μM compound, read-out: inhibition observed at 10 μM; for IC50: 168 h, reduction in viral cytopathic effects, 7 days
[2] = test system: A/PR/8/34 (H1N1); assay: as above; assay type: cell-based; details: for inhibition at 10 µM: 10 μM compound, read-out: inhibition observed at 10 μM; for IC50: 168 h, reduction in viral cytopathic effects, 7 days
[3] = test system: A/Victoria/3/75 (H3N2); assay: as above; assay type: cell-based; details: for IC50: 168 h, reduction in viral cytopathic effects, 7 days
[4] = test system: A/WS/33 (H1N1); assay: as above; assay type: cell-based; details: for inhibition at 10 µM: 10 μM compound, read-out: inhibition observed at 10 μM; for IC50: 168 h, reduction in viral cytopathic effects, 7 days
[5] = test system: B/Lee/40; assay: as above; assay type: cell-based; details: A549, 168 h
[6] = test system: B/Russia/69; assay: as above; assay type: cell-based; details: unidentified influenza virus, A549, 168 h
[7] = test system: A549 cells; details: concentration resulting in 50% cell death, absence of virus; for CC50: read-out: TC50
[8] = in vitro; details: human

Compound | inhibition at 10 µM [1] [%] | inhibition at 10 µM [2] [%] | IC50 [3] | inhibition at 10 µM [4] [%] | IC50 [5] | IC50 [6] | CC50 ([7]; A/PR/8/34 (H1N1)) [µM] | CC50 ([7]; A/Victoria/3/75 (H3N2)) [µM] | CC50 ([7]; A/WS/33 (H1N1)) [µM] | CC50 ([7]; B/Lee/40) [µM] | CC50 ([7]; B/Russia/69) [µM] | CC50 [8] [µM] | IC50 [1] | IC50 [2] | IC50 [4] | also measured
CC(C)N1CCN(Cc2cnc(-c3cc(-c4cccc5[nH]ccc45)cc4[nH]ncc34)o2)CC1 [Compound A, 6-(1H-indol-4-yl)-4-(5-{[4-(1-methylethyl)-1-piperazinyl]methyl}-1,3-oxazol-2-yl)-1H-indazole hydrochloride] | 40.4 | 15.9 | 9.19 µM | 21.4 | 4.61 µM | 3.53 µM | > 10 | > 10 | > 10 | > 10 | > 10 | > 10 |  |  |  | 
COc1ncc(-c2cc(-c3ncc(CN4C[C@@H](C)O[C@@H](C)C4)o3)c3cn[nH]c3c2)cc1NS(C)(=O)=O [Compound B, N-[5-[4-(5-{[(2R,6S)-2,6-dimethyl-4-morpholinyl]methyl}-1,3-oxazol-2-yl)-1H-indazol-6-yl]-2-(methyloxy)-3-pyridinyl]methanesulfonamide] | 13.7 | 35 |  | 0.1 | 7.94 µM | 4.65 µM | > 10 | > 10 | > 10 | > 10 | > 10 | > 10 |  |  |  | inhibition at 10 µM ([3]; 10 μM compound, read-out: inhibition observed at 10 μM): 11.4%
NC(=O)c1ncn([C@@H]2O[C@H](CO)[C@@H](O)[C@H]2O)n1 [Ribavirin, ribavirin] |  |  | 6.01 mg/L |  | 6.65 mg/L | 4.75 mg/L |  |  |  |  |  |  | 6.59 mg/L | 7.35 mg/L | 7.34 mg/L | TC50 ([7]; A/PR/8/34 (H1N1)): >100 mg/L; TC50 ([7]; A/Victoria/3/75 (H3N2)): >100 mg/L; TC50 ([7]; A/WS/33 (H1N1)): >100 mg/L; TC50 ([7]; B/Lee/40): >100 mg/L; TC50 ([7]; B/Russia/69): >100 mg/L; TC50 ([7]; table row A/Hong Kong/8/68 (H3N2)): >100 mg/L
CC(=O)N[C@H]1[C@H]([C@H](O)[C@H](O)CO)OC(C(=O)O)=C[C@@H]1N=C(N)N [Zanamivir, zinamavir] |  |  | 0.832 µM |  | 2.52 µM | 3.25 µM | > 100 | > 100 | > 100 | > 100 | > 100 | > 100 | 0.871 µM | […] | 0.743 µM | 
